Experimental findings from patent US20250099517A1, “Use of Lactobacillus reuteri Y7 strain for prevention or treatment of ocular diseases” (Taipei Medical University, priority 2023, published 2025) are described below.

Holding throughout (format): in vivo, C57BL/6 mice
Data set [1] can be described thus: body weights of mice during the experiment. The conditions noted are these: LU, lutein 6.15 mg/kg bw oral daily, blue light, mean±S.E.M., in g (unit assumed). The protocol:
In the present invention, six-week-old male C57BL/6 mice were placed in a breeding cage in which the following feeding conditions were kept: temperature, 22±2° C., humidity, 55±5%, and the light-dark cycle of 12-hour light and 12-hour dark. The mice were fed with fodders at the adaptive phase for one week; general solid fodders for test animals were administered to mice of the control group and mice during the adaptive phase. The initial day was defined as Day 0 when the adaptive phase for the mice was over. From the next week, the mice were interfered with samples under test and exposed to blue light. During the experiments, the mice were monitored for weights as well as water intakes and checked for any physiological change. The data for experiments through electroretinography (ERG), fndus photography (FP), fundus fluorescein angiograph (FFA), spectral-domain optical coherence tomography (SD-OCT) and intraocular pressure (IOP) were collected at Day 0, Day 21 and Day 35, as shown in FIG. 1 for the experimental process. The C57BL/6 mice, which weighed between 23 and 25 g, were divided into seven groups randomly. In each group, the six mice induced by blue light successfully were incorporated in experiments. The samples dissolved in deuterium-depleted water (DDW) were fed to mice through oral tubes once a day. The groups were named and introduced as follows: • (1) Solvent not classified group (NC): The mice were fed with 0.2 ml deuterium-depleted water (DDW) through tubes; • (2) Negative control group (Blue light (BL)): The mice were fed with 0.2 ml deuterium-depleted water (DDW) through tubes and exposed to blue light; • (3) Low-dosage Y7 probiotics group […]): The mice were fed with low-dosage Y7 probiotics (probiotic counts of 1.0×10^8 CFU/ml dissolved in 0.2 ml DDW per day) and exposed to blue light; • (4) High-dosage Y7 probiotics group […]): The mice were fed with high-dosage Y7 probiotics (probiotic counts of 1.0×10^9 CFU/ml dissolved in 0.2 ml DDW per day) and exposed to blue light; • (5) Positive control group (lutein (LU)): The mice were fed with lutein and exposed to blue light. The recommended human dosage of lutein is 30 mg. The mouse cage (48×25×20 cm) placed inside a stainless ventilated box was equipped with blue light boards as blue light sources around and above. In the experiment of animals exposed to blue light, six-week-old mice staying in the mouse cage were fed with drinking water as well as fodders and exposed to 400 Lux blue light illumination under the light-dark cycle of 12-hour light and 12-hour dark. The experiment was aimed at causing mice' late dry macular disease induced by chronic light injuries for simulating a human being's macular disease after long-term exposure to short-wavelength blue light from 3C products in daily life. All data written as the form of mean±standard error of the mean (S.E.M.) were used in the statistical analysis through the one-way ANOVA and the Newman-Keuls test; p<0.05 denoted statistical difference. In the experiment, the software for the statistical analysis was Graph pad Prism (v9.2.0). The data such as food intake, water intake, body weight, organ weight and other clinical examination data were analyzed with the one-way ANOVA.

The test system of data set [2] is Occludin, Claudin-1, ZO-1 gene expression. Put plainly: q-PCR of tight junction gene expression in eyes. Conditions: for gene expressions of Occludin compared with the LU group: p<0.05. The protocol: The C57BL/6 mice, which weighed between 23 and 25 g, were divided into seven groups randomly. In each group, the six mice induced by blue light successfully were incorporated in experiments. The samples dissolved in deuterium-depleted water (DDW) were fed to mice through oral tubes once a day. The groups were named and introduced as follows: • (1) Solvent not classified group (NC): The mice were fed with 0.2 ml deuterium-depleted water (DDW) through tubes; • (2) Negative control group (Blue light (BL)): The mice were fed with 0.2 ml deuterium-depleted water (DDW) through tubes and exposed to blue light; • (3) Low-dosage Y7 probiotics group […]): The mice were fed with low-dosage Y7 probiotics (probiotic counts of 1.0×10^8 CFU/ml dissolved in 0.2 ml DDW per day) and exposed to blue light; • (4) High-dosage Y7 probiotics group […]): The mice were fed with high-dosage Y7 probiotics (probiotic counts of 1.0×10^9 CFU/ml dissolved in 0.2 ml DDW per day) and exposed to blue light; • (5) Positive control group (lutein (LU)): The mice were fed with lutein and exposed to blue light. The recommended human dosage of lutein is 30 mg. The mouse cage (48×25×20 cm) placed inside a stainless ventilated box was equipped with blue light boards as blue light sources around and above. In the experiment of animals exposed to blue light, six-week-old mice staying in the mouse cage were fed with drinking water as well as fodders and exposed to 400 Lux blue light illumination under the light-dark cycle of 12-hour light and 12-hour dark. The experiment was aimed at causing mice' late dry macular disease induced by chronic light injuries for simulating a human being's macular disease after long-term exposure to short-wavelength blue light from 3C products in daily life. The eyes of a mouse sacrificed were collected for the following purposes. RNAs extracted with Trizol were reverse-transcribed to cDNAs. Then, the real-time quantitative polymerase chain reaction was enabled to detect gene expressions related to inflammatory hormones and apoptosis such as TNF-α, IL-1B, IL-6, Bax, Bcl-2, Caspase1, Caspase3 and NLRP3 for comparisons with the endogenous level of β-actin, GAPDH or 18S rRNA. [table] The gene expressions related to tight junctions of mice' eyes, buccal mucosas and colons after induction of blue light were analyzed through q-PCR and shown in FIG. 10a, FIG. 10d and FIG. 10g for Occludin, FIG. 10b, FIG. 10e and FIG. 10h for Claudin-1 and FIG. 10c, FIG. 10f and FIG. 10i for ZO-1, respectively.

Data set [3] has the same test system. In words: q-PCR of tight junction gene expression in buccal mucosas. Conditions: Y7H high-dosage group, p<0.05. From the text: The C57BL/6 mice, which weighed between 23 and 25 g, were divided into seven groups randomly. In each group, the six mice induced by blue light successfully were incorporated in experiments. The samples dissolved in deuterium-depleted water (DDW) were fed to mice through oral tubes once a day. […] Then, the real-time quantitative polymerase chain reaction was enabled to detect gene expressions related to inflammatory hormones and apoptosis such as TNF-α, IL-1B, IL-6, Bax, Bcl-2, Caspase1, Caspase3 and NLRP3 for comparisons with the endogenous level of β-actin, GAPDH or 18S rRNA. […] The gene expressions related to tight junctions of mice' eyes, buccal mucosas and colons after induction of blue light were analyzed through q-PCR and shown in FIG. 10a, FIG. 10d and FIG. 10g for Occludin, FIG. 10b, FIG. 10e and FIG. 10h for Claudin-1 and FIG. 10c, FIG. 10f and FIG. 10i for ZO-1, respectively.

With `CC1=C[C@H](O)CC(C)(C)[C@H]1/C=C/C(C)=C/C=C/C(C)=C/C=C/C=C(C)/C=C/C=C(C)/C=C/C1=C(C)C[C@@H](O)CC1(C)C` [lutein, reference compound], the “body weights of mice” value is listed as 21.25 ± 1.52 in data set [1] (Day 0); 21.35 ± 1.97 in data set [1] (Day 7); 22.12 ± 2.09 in data set [1] (Day 14); 22.12 ± 2.09 in data set [1] (Day 21); 22.40 ± 1.97 in data set [1] (Day 28); 22.88 ± 2.86 in data set [1] (Day 35).

“Lactobacillus reuteri Y7 [Y7 probiotics]”: in data set [2] (Y7H high-dosage group), the “gene expressions of Claudin-1 compared with the LU group” value was “descending trend”, the “gene expressions of ZO-1 compared with the LU group” value is reported as “descending trend” and the “gene expressions of Occludin compared with the LU group” value is listed as “decreased significantly”. In data set [2] (Y7L low-dosage group), the “gene expressions of Claudin-1 compared with the LU group” value is “descending trend”, the “gene expressions of ZO-1 compared with the LU group” value was “descending trend” and the “gene expressions of Occludin compared with the LU group” value is “decreased significantly”. For the same compound, the “gene expressions of ZO-1 compared with NC, BL or LU groups” value in data set [3] was “increased significantly”.
